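Assay format: 96-well plates, 48-hour exposure. GI50 = concentration required for 50% inhibition of growth.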 Calls of active or inactive are those of the source. Cut-off read from the data, not from the text of the source: active = GI50 up to about 1.1 µM and inactive = higher.
What was measured:
Experiment in all cases: DTP human tumour cell line panel, 48 h
HCC 2998 = system: HCC 2998
OVCAR-5 = system: OVCAR-5
Hs-578T = system: Hs-578T
OVCAR-8 = system: OVCAR-8
SF-295 = system: SF-295
T47D = system: T47D
MOLT-4 = system: MOLT-4
SR = system: SR
SK-MEL-2 = system: SK-MEL-2
SNB-19 = system: SNB-19
RPMI-8226 = system: RPMI-8226
SN12C = system: SN12C
DU-145 = system: DU-145
HOP-62 = system: HOP-62
TK-10 = system: TK-10
NCI-H460 = system: NCI-H460
KM12 = system: KM12
SK-MEL-5 = system: SK-MEL-5
OVCAR-4 = system: OVCAR-4
HT-29 = system: HT-29

Structure (SMILES) | GI50 (HCC 2998) | GI50 (OVCAR-5) | GI50 (Hs-578T) | GI50 (OVCAR-8) | GI50 (SF-295) | GI50 (T47D) | GI50 (MOLT-4) | GI50 (SR) | GI50 (SK-MEL-2) | GI50 (SNB-19) | GI50 (RPMI-8226) | GI50 (SN12C) | GI50 (DU-145) | GI50 (HOP-62) | GI50 (TK-10) | GI50 (NCI-H460) | GI50 (KM12) | GI50 (SK-MEL-5) | GI50 (OVCAR-4) | GI50 (HT-29)
CC(=O)c1cccn1/C=C(\OC(=O)OC(C)(C)C)c1ccc[nH]1 | > 100 µM (inactive) | 51.2 µM (inactive) | > 100 µM (inactive) | 99.5 µM (inactive) | 39.4 µM (inactive) | 33 µM (inactive) | 48.2 µM (inactive) | 31 µM (inactive) | > 100 µM (inactive) | 46.7 µM (inactive) | 59 µM (inactive) | 96.8 µM (inactive) | 58.9 µM (inactive) | 77.3 µM (inactive) | > 100 µM (inactive) | > 100 µM (inactive) | 46.3 µM (inactive) | 40.3 µM (inactive) | 42 µM (inactive) | 
COc1cc(/C=C2/SC(c3ccccc3)N(c3ccccc3)C2=O)cc(OC)c1OC (configuration not stated) | > 100 µM (inactive) | > 100 µM (inactive) | > 100 µM (inactive) | 76.4 µM (inactive) | 27 µM (inactive) | 36.2 µM (inactive) | 8.24 µM (inactive) | 14 µM (inactive) | > 100 µM (inactive) | > 100 µM (inactive) | 9.66 µM (inactive) | > 100 µM (inactive) | > 100 µM (inactive) | 44.8 µM (inactive) | > 100 µM (inactive) | 76 µM (inactive) | 30.3 µM (inactive) | 12.1 µM (inactive) | 69.5 µM (inactive) | 
C=Cc1ccccc1C1(O)C=CC(OC)(OC)C=C1 | 18.5 µM (inactive) | 6.93 µM (inactive) | 21.4 µM (inactive) | 2.06 µM (inactive) | 17.8 µM (inactive) | 22.2 µM (inactive) | 4 µM (inactive) | 2.65 µM (inactive) | 17.3 µM (inactive) | 15.8 µM (inactive) | 6.41 µM (inactive) | 8.24 µM (inactive) | 20.4 µM (inactive) | 6.31 µM (inactive) | 3.25 µM (inactive) | 8.57 µM (inactive) | 0.617 µM (active) | 13.8 µM (inactive) | 17.8 µM (inactive) | 3.57 µM (inactive)
O=S(=O)(Nc1ccccc1S(=O)(=O)c1ccccc1)c1ccccc1 | 44.6 µM (inactive) | > 100 µM (inactive) | 51.9 µM (inactive) | 68.5 µM (inactive) | 94.4 µM (inactive) | 59.3 µM (inactive) | 65.8 µM (inactive) | > 100 µM (inactive) | 64.3 µM (inactive) | > 100 µM (inactive) | 32.3 µM (inactive) | > 100 µM (inactive) | 87.9 µM (inactive) | > 100 µM (inactive) | > 100 µM (inactive) |  | 56.8 µM (inactive) | 58.6 µM (inactive) | 51.3 µM (inactive) | 48 µM (inactive)
c1ccc2c(-c3cnc(-c4c[nH]c5ccccc45)cn3)c[nH]c2c1 | 42.6 µM (inactive) | 46.1 µM (inactive) | 57.8 µM (inactive) | 39.4 µM (inactive) | 20.2 µM (inactive) | 66.5 µM (inactive) |  | 30 µM (inactive) | 70.3 µM (inactive) | 58.7 µM (inactive) | 45.3 µM (inactive) | 31.4 µM (inactive) | > 100 µM (inactive) | 37.8 µM (inactive) | 47.1 µM (inactive) | 46.9 µM (inactive) | 74.1 µM (inactive) | 50.1 µM (inactive) | > 100 µM (inactive) | 
NC(=O)C(C(N)=O)=C(O)/C(O)=C/C(=O)c1ccccc1 | > 100 µM (inactive) | > 100 µM (inactive) | > 100 µM (inactive) | > 100 µM (inactive) | > 100 µM (inactive) | > 100 µM (inactive) |  | 1.99 µM (inactive) | > 100 µM (inactive) | > 100 µM (inactive) | 12.6 µM (inactive) | > 100 µM (inactive) | > 100 µM (inactive) | > 100 µM (inactive) | > 100 µM (inactive) | > 100 µM (inactive) | > 100 µM (inactive) | 73.8 µM (inactive) | > 100 µM (inactive) | > 100 µM (inactive)
CC(=O)N1C(Nc2cccc3nc(C)ccc23)CCN1c1ccccc1 (configuration not stated) | > 10 µM (inactive) | > 10 µM (inactive) | > 10 µM (inactive) | > 10 µM (inactive) | > 10 µM (inactive) | > 10 µM (inactive) | > 10 µM (inactive) | 7.19 µM (inactive) | > 10 µM (inactive) | > 10 µM (inactive) | > 10 µM (inactive) | > 10 µM (inactive) | > 10 µM (inactive) | > 10 µM (inactive) | > 10 µM (inactive) | > 10 µM (inactive) |  | > 10 µM (inactive) | > 10 µM (inactive) | > 10 µM (inactive)
C=CCNC(=S)NC=C(C(N)=O)C(N)=O | > 100 µM (inactive) | > 100 µM (inactive) | > 100 µM (inactive) | > 100 µM (inactive) | > 100 µM (inactive) | > 100 µM (inactive) | > 100 µM (inactive) | > 100 µM (inactive) | > 100 µM (inactive) | > 100 µM (inactive) | > 100 µM (inactive) | > 100 µM (inactive) | > 100 µM (inactive) | > 100 µM (inactive) |  | > 100 µM (inactive) | > 100 µM (inactive) | > 100 µM (inactive) | > 100 µM (inactive) | > 100 µM (inactive)
CN(C(=O)c1ccc(Cl)cc1)C(=S)N1CCN(c2ccccc2)CC1 | > 100 µM (inactive) | > 100 µM (inactive) | 19 µM (inactive) | > 100 µM (inactive) | > 100 µM (inactive) | > 100 µM (inactive) | 58.3 µM (inactive) | 35.2 µM (inactive) | > 100 µM (inactive) | > 100 µM (inactive) | 64.3 µM (inactive) | > 100 µM (inactive) | > 100 µM (inactive) |  | > 100 µM (inactive) | 37.8 µM (inactive) | 53.2 µM (inactive) | 35.5 µM (inactive) | > 100 µM (inactive) | 77.6 µM (inactive)
O=C1CS(=O)(=O)C(c2cccc(Oc3ccccc3)c2)N1c1ccc(Cl)cc1 (configuration not stated) | 3.4 µM (inactive) | 25.1 µM (inactive) | 30.1 µM (inactive) | 18.8 µM (inactive) | 26.5 µM (inactive) | 10.9 µM (inactive) | 20.9 µM (inactive) | 10.6 µM (inactive) | 15.2 µM (inactive) | 46.7 µM (inactive) |  | 22.1 µM (inactive) | 67.3 µM (inactive) | 46.7 µM (inactive) | 22.6 µM (inactive) | 15 µM (inactive) | 14.8 µM (inactive) | 12.3 µM (inactive) | 22.8 µM (inactive) | 25 µM (inactive)
O=C(O)/C=C\C(=O)Nc1ccc2c(c1)-c1ccccc1C2 | 36.7 µM (inactive) | > 100 µM (inactive) | 44.5 µM (inactive) | 77.4 µM (inactive) | > 100 µM (inactive) | 88.1 µM (inactive) |  | 44.9 µM (inactive) | 38.5 µM (inactive) | 42.3 µM (inactive) | 42.5 µM (inactive) | > 100 µM (inactive) | 80.2 µM (inactive) | 81.3 µM (inactive) | > 100 µM (inactive) | > 100 µM (inactive) | > 100 µM (inactive) | > 100 µM (inactive) | > 100 µM (inactive) | > 100 µM (inactive)
O=C(O)C[S+]([O-])c1ccc2c3c(cccc13)C(=O)c1ccccc1-2 (configuration not stated) | > 100 µM (inactive) | > 100 µM (inactive) | > 100 µM (inactive) | > 100 µM (inactive) | > 100 µM (inactive) | > 100 µM (inactive) |  | > 100 µM (inactive) | > 100 µM (inactive) | > 100 µM (inactive) | > 100 µM (inactive) | > 100 µM (inactive) | > 100 µM (inactive) | > 100 µM (inactive) | > 100 µM (inactive) | > 100 µM (inactive) | > 100 µM (inactive) | > 100 µM (inactive) | > 100 µM (inactive) | > 100 µM (inactive)
N#Cc1ncc(C(Cl)Cl)nc1Cl | 1.69 µM (inactive) | 1.95 µM (inactive) | 4.66 µM (inactive) | 2.15 µM (inactive) | 7.24 µM (inactive) | 1.76 µM (inactive) | 3.37 µM (inactive) | 1.81 µM (inactive) | 1.91 µM (inactive) | 6.38 µM (inactive) |  | 1.74 µM (inactive) | 8.67 µM (inactive) | 3.07 µM (inactive) | 2.35 µM (inactive) | 1.81 µM (inactive) | 1.4 µM (inactive) | 1.75 µM (inactive) | 1.85 µM (inactive) | 1.74 µM (inactive)
CC[C@@]1(O)C(=O)OCc2c1cc1n(c2=O)Cc2c-1nc1ccccc1c2/C=N\NC(=O)C(N)Cc1ccc(O)cc1 (some centres not stated) | 4.03 µM (inactive) |  | 7.43 µM (inactive) | 0.809 µM (active) | 0.46 µM (active) | 0.285 µM (active) | 0.0658 µM (active) | < 0.0188 µM (active) |  | 0.267 µM (active) | 0.867 µM (active) | 0.228 µM (active) | 0.331 µM (active) | 0.248 µM (active) | > 31.6 µM (inactive) | 0.187 µM (active) | 3.37 µM (inactive) | 0.638 µM (active) | 6.61 µM (inactive) | 1.36 µM (inactive)
CC(C)(C)n1c(=O)[nH]n(C2NN=Cc3cccc4cccc2c34)c1=O (configuration not stated) | 39.5 µM (inactive) | 69 µM (inactive) | 39.4 µM (inactive) | 40.3 µM (inactive) |  | 47.9 µM (inactive) | 20.8 µM (inactive) | 11.4 µM (inactive) | 32.1 µM (inactive) | 34.9 µM (inactive) | 16.3 µM (inactive) | 79.3 µM (inactive) | > 100 µM (inactive) |  | 41.3 µM (inactive) | 30.1 µM (inactive) | 34 µM (inactive) |  | 42.6 µM (inactive) | 20.4 µM (inactive)

From ChEMBL document CHEMBL1201862, “PubChem BioAssay data set” (2004)
